Here are results for 24 compounds from patent US20260356841A1, “HETEROCYCLIC PYRIDINONE COMPOUNDS AS TRIGGERING RECEPTOR EXPRESSED ON MYELOID CELLS 2 AGONISTS AND METHODS OF USE” (Vigil Neuroscience, Inc., priority 2023, published 2026).

Where only a bound is given, the exact number is not on record here.

The target of this test is T1, human TREM2 (Homo sapiens, UniProt Q9NZC2).
T1 construct: expressed in transfected cells; host or cells: HEK293T (HEK293T-hTREM2 cells)
T1 sequence (Q9NZC2 19-230): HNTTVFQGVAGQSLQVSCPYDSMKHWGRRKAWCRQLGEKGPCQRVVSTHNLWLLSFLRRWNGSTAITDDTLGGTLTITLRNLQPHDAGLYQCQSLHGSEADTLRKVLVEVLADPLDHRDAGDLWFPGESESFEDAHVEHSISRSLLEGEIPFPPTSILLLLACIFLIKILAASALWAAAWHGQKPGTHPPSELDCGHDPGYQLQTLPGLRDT
T1 sequence (O43914 22-113 partner): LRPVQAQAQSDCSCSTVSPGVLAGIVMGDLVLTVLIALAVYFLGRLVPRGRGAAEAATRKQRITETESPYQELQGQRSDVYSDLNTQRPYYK
The experiment in a line: TREM2 agonist potency by cellular phosphorylation of Spleen Tyrosine Kinase (Syk), AlphaLisa, HEK293T-hTREM2 cells. The settings on record: hTREM2 EC50 Data (HEK293 Cells); Syk phosphorylation, AlphaLisa; read-out: hTREM2 EC50. The test is classed as cell-based. As to the method:
Measurement of TREM2 agonist potency was done using a HEK cell line expressing human TREM2 and DAP12 (HEK293T-hTREM2 cells). Binding of small molecules to, and activation of, TREM2 increases the phosphorylation of Syk. The resultant levels of Syk phosphorylation are measured using a commercial AlphaLisa reagent kit. To perform the assay, HEK-hTREM2 cells were plated at 14,000 cells per well in a 384 well plate, in 25 μL of complete growth media and incubated at 37° C., 5% CO2 for 20-24 hours.
Prior to the assay, test compounds were diluted in the 384 well plates in assay buffer and allowed to equilibrate for 30 minutes. Growth media was removed from cell plates by inversion on blotting paper, and 25 μL of test articles in assay buffer was added to cells. Cells were incubated for 45 minutes at room temperature. After 45 minutes, assay buffer was removed and 10 μL of lysis buffer was added. Plates were shaken for 20 minutes at 350 RPM at room temperature. After complete lysis, AlphaLisa reagents were added to the lysate, and fluorescence intensity was measured using a Perkin Elmer Envision plate reader. Intensities were used to generate a standard curve, and % activation was calculated. Curve fitting was performed using Prism v9 software, log (agonist) vs response-variable slope (four parameters), and EC50s were calculated from the curve fit.
The results presented in Table B have been generated with the in vitro assay described above. This assay may be used to test any of the compounds described herein to assess and characterize a compound's ability to act as an agonist of TREM2.
Background: Bead proximity is the source of the signal in Alpha formats.
One may read the EC50 as the midpoint of the concentration-response curve. For the compound `Cc1nc2nc([C@H]3CCO[C@@H](c4ccc(=O)n(N5CC6C(C5)C6(F)F)c4)C3)nc(C34CC(C(F)(F)F)(C3)C4)c2nc1C` (stereo partly drawn) [Example 215, 1-(6,6-difluoro-3-azabicyclo[3.1.0]hexan-3-yl)-5-[(2R,4S)-4-[6,7-dimethyl-4-[3-(trifluoromethyl)-1-bicyclo[1.1.1]pentanyl]pteridin-2-yl]tetrahydropyran-2-yl]pyridin-2-one], the concentration for a half-maximal effect (EC50) was < 100 nM. The figure for `Cc1nc2nc([C@H]3CCO[C@@H](c4ccc(=O)n(C)c4)C3)nc(C34CC(CCF)(C3)C4)c2nc1C` [Example 48, 5-((2R,4S)-4-(4-(3-(2-fluoroethyl)bicyclo[1.1.1]pentan-1-yl)-6,7-dimethylpteridin-2-yl)tetrahydro-2H-pyran-2-yl)-1-methylpyridin-2(1H)-one] is < 100 nM; for `CN(C)c1nc2nc([C@H]3CCO[C@@H](c4ccc(=O)n(C)c4)C3)nc(-c3ccc(F)cc3F)c2s1` [Example 13, 5-[(2R,4S)-4-[7-(2,4-difluorophenyl)-2-(dimethylamino)thiazolo[4,5-d]pyrimidin-5-yl]tetrahydropyran-2-yl]-1-methyl-pyridin-2-one] it is 100 to 500 nM. For `[2H]C([2H])([2H])n1cc([C@H]2C[C@@H](c3nc(C45CC(C(F)(F)F)(C4)C5)c4cc(C(F)(F)F)c(C)nc4n3)CCO2)ccc1=O` [Example 334, 1-(methyl-d3)-5-((2R,4S)-4-(7-methyl-6-(trifluoromethyl)-4-(3-(trifluoromethyl)bicyclo[1.1.1]pentan-1-yl)pyrido[2,3-d]pyrimidin-2-yl)tetrahydro-2H-pyran-2-yl)pyridin-2(1H)-one], the EC50 is < 100 nM. Take `Cc1nc2nc(C3CCO[C@@H](c4ccc(=O)n(-c5cscn5)c4)C3)nc(C34CC(C(F)(F)F)(C3)C4)c2nc1C` (mixture of isomers) [Example 109, 5-((2R)-4-(6,7-dimethyl-4-(3-(trifluoromethyl)bicyclo-[1.1.1]pentan-1-yl)pteridin-2-yl)tetrahydro-2H-pyran-2-yl)-1-(thiazol-4-yl)pyridin-2(1H)-one]: the EC50 was < 100 nM.

Regarding `C=CCNn1cc([C@H]2C[C@@H](c3nc(C45CC(C(F)(F)F)(C4)C5)c4nc(C)c(C)nc4n3)CCO2)ccc1=O` [Example 207, 1-(allylamino)-5-[(2R,4S)-4-[6,7-dimethyl-4-[3-(trifluoromethyl)-1-bicyclo[1.1.1]pentanyl]pteridin-2-yl]tetrahydropyran-2-yl]pyridin-2-one], the EC50 was < 100 nM.

`Cc1nc2nc([C@H]3CCO[C@@H](c4ccc(=O)n(CC5(C#N)CC5)c4)C3)nc(C34CC(C(F)(F)F)(C3)C4)c2nc1C` [Example 98, 1-[[5-[(2R,4S)-4-[6,7-dimethyl-4-[3-(trifluoromethyl)-1-bicyclo[1.1.1]pentanyl]pteridin-2-yl]tetrahydropyran-2-yl]-2-oxo-1-pyridyl]methyl]cyclopropanecarbonitrile]: the half-maximal effective concentration (EC50) was < 100 nM. Turning to `CNn1cc([C@H]2C[C@@H](c3nc(C45CC(C(F)(F)F)(C4)C5)c4cc(C(F)(F)F)c(C)nc4n3)CCO2)ccc1=O` [Example 338, 1-(methylamino)-5-((2R,4S)-4-(7-methyl-6-(trifluoromethyl)-4-(3-(trifluoromethyl)bicyclo-[1.1.1]pentan-1-yl)pyrido[2,3-d]pyrimidin-2-yl)tetrahydro-2H-pyran-2-yl)pyridin-2 (1H)-one], the EC50 was < 100 nM. The figure for `[2H]C([2H])([2H])n1cc([C@H]2C[C@@H](c3nc(C4CC45CC5(F)F)c4nc(C)c(C)nc4n3)CCO2)ccc1=O` (stereo partly drawn) [Example 92, 5-((2R,4S)-4-(4-(4,4-difluorospiro[2.2]pentan-1-yl)-6,7-dimethylpteridin-2-yl)tetrahydro-2H-pyran-2-yl)-1-(methyl-d3)pyridin-2(1H)-one] is > 500 nM. For the compound `Cc1nc2nc([C@H]3CCO[C@@H](c4ccc(=O)n(C5CC5)c4)C3)nc(C34CC(C(F)(F)F)(C3)C4)c2nc1C` [Example 74, 1-cyclopropyl-5-[(2R,4S)-4-[6,7-dimethyl-4-[3-(trifluoromethyl)-1-bicyclo[1.1.1]pentanyl]pteridin-2-yl]tetrahydropyran-2-yl]pyridin-2-one], the EC50 was < 100 nM. Regarding `CCCN(CCC)n1cc([C@H]2C[C@@H](c3nc(C45CC(C(F)(F)F)(C4)C5)c4nc(C)c(C)nc4n3)CCO2)ccc1=O` [Example 211, 5-[(2R,4S)-4-[6,7-dimethyl-4-[3-(trifluoromethyl)-1-bicyclo[1.1.1]pentanyl]pteridin-2-yl]tetrahydropyran-2-y1]-1-(dipropylamino)pyridin-2-one], the EC50 is < 100 nM. As for `Cc1nc2nc([C@H]3CCO[C@@H](c4ccc(=O)n(C)c4)C3)nc(-c3cc(F)c(C(F)(F)F)cc3F)c2nc1C` [Example 350], the concentration giving a half-maximal response (EC50) is < 100 nM. Regarding `COc1nc2c(C3CCCCC3)nc([C@H]3CCO[C@@H](c4ccc(=O)n(C)c4)C3)nc2nc1C` [Example 136, 5-[(2R)-4-(4-cyclohexyl-6-methoxy-7-methyl-pteridin-2-yl)tetrahydropyran-2-yl]-1-methyl-pyridin-2-one], the EC50 is < 100 nM. In the case of `Cc1nc2nc([C@H]3CCO[C@@H](c4ccc(=O)n(-c5cscn5)c4)C3)nc(C34CC(C(F)(F)F)(C3)C4)c2nc1C` [Example 110, 5-((2R,4S)-4-(6,7-dimethyl-4-(3-(trifluoromethyl)bicyclo[1.1.1]pentan-1-yl)pteridin-2-yl)tetrahydro-2H-pyran-2-yl)-1-(thiazol-4-yl)pyridin-2(1H)-one], the concentration for a half-maximal effect (EC50) is < 100 nM. On to `Cc1nc2nc([C@H]3C[C@@H](C)O[C@@H](c4ccc(=O)n(C)c4)C3)nc(C34CC(C(F)(F)F)(C3)C4)c2nc1C` [Example 56, 5-[(2R,4S,6R)-4-[6,7-dimethyl-4-[3-(trifluoromethyl)-1-bicyclo[1.1.1]-pentanyl]pteridin-2-yl]-6-methyl-tetrahydropyran-2-yl]-1-methyl-pyridin-2-one], for which the EC50 is < 100 nM. In the case of `Cc1nc2nc([C@H]3CCO[C@@H](c4ccc(=O)n(C)c4)C3)nc(C3CCC(CF)CC3)c2nc1C` (stereo partly drawn) [Example 50, 5-[(2R,4S)-4-[4-[4-(fluoromethyl)-cyclohexyl]-6,7-dimethyl-pteridin-2-yl]tetrahydropyran-2-yl]-1-methyl-pyridin-2-one], the 50% effective concentration (EC50) is < 100 nM. Turning to `Cc1nc2nc(N3C[C@@H](C)O[C@@H](c4ccc(=O)n(C)c4)C3)nc(-c3cnc(C4CC4)s3)c2nc1C` [Example 21, 5-[(2S,6R)-4-[4-(2-cyclopropylthiazol-5-yl)-6,7-dimethyl-pteridin-2-yl]-6-methyl-morpholin-2-yl]-1-methyl-pyridin-2-one], the EC50 is < 100 nM.

Regarding `[2H]C([2H])([2H])c1nc2nc(C3CCOC(c4ccc(=O)n(C([2H])([2H])[2H])c4)C3)nc(C34CC(C(F)(F)F)(C3)C4)c2nc1C([2H])([2H])[2H]` (stereo not drawn) [Example 353], the EC50 was < 100 nM. As to `Cc1cnc2c(C34CC(C(F)(F)F)(C3)C4)nc([C@@H]3CCO[C@H](c4ccc(=O)n(C)c4)C3)nc2n1` [Example 124, 1-methyl-5-((2S,4R)-4-(7-methyl-4-(3-(trifluoromethyl)bicyclo[1.1.1]pentan-1-yl)pteridin-2-yl)tetrahydro-2H-pyran-2-yl)pyridin-2(1H)-one], the EC50 lay within 100 to 500 nM. The figure for `COc1nc2c(C3CCC(F)(F)CC3)nc([C@H]3CCO[C@@H](c4ccc(=O)n(C)c4)C3)nc2nc1C` [Example 138, 5-[(2R,4S)-4-[4-(4,4-difluorocyclohexyl)-6-methoxy-7-methyl-pteridin-2-yl]tetrahydropyran-2-yl]-1-methyl-pyridin-2-one] is < 100 nM. On to `Cc1nc2nc([C@H]3CCO[C@@H](c4ccc(=O)n(C)c4)C3)nc(C34CC(CC(F)(F)F)(C3)C4)c2nc1C` [Example 54, 5-[(2R,4S)-4-[6,7-dimethyl-4-[3-(2,2,2-trifluoroethyl)-1-bicyclo[1.1.1]pentanyl]pteridin-2-yl]tetrahydro-2H-pyran-2-yl]-1-methyl-pyridin-2(1H)-one], for which the concentration giving a half-maximal response (EC50) is < 100 nM. Turning to `Cc1nc2nc([C@@H]3CCO[C@H](c4ccc(=O)n(C(C)C)c4)C3)nc(-c3ccc(C(F)(F)F)cc3F)c2nc1C` [Example 69, 1-isopropyl-5-[(2S,4R)-4-[4-[2-fluoro-4-(trifluoromethyl)-phenyl]-6,7-dimethyl-pteridin-2-yl]tetrahydropyran-2-yl]pyridin-2-one], the concentration for a half-maximal effect (EC50) is < 100 nM.

As for `COc1nc2c(C34CC(C(F)(F)F)(C3)C4)nc([C@H]3CCO[C@@H](c4ccc(=O)n(CC#N)c4)C3)nc2nc1C` [Example 145, 2-[5-[(2R,4S)-4-[6-methoxy-7-methyl-4-[3-(trifluoromethyl)-1-bicyclo-[1.1.1]pentanyl]pteridin-2-yl]tetrahydropyran-2-yl]-2-oxo-1-pyridyl]acetonitrile], the EC50 is < 100 nM. To `Cc1nc2nc([C@H]3CCO[C@@H](c4ccc(=O)n(C)c4)C3)nc(-c3ccc(F)cc3F)c2nc1C` [Example 1, 1-methyl-5-[(2R,4S)-4-[4-(2,4-difluorophenyl)-6,7-dimethyl-pteridin-2-yl]tetrahydropyran-2-yl]pyridin-2-one] belongs < 100 nM.
